# Assay results: the NIST ThermoML archive (doi:10.1016/j.fluid.2015.07.010)
# Numbers after ± are expanded uncertainties.
# Conditions: for kinematic viscosity: Liquid, Scattered Light Surfacing
structure (smiles),measurement,setting,value
CCF [fluoroethane],surface tension liquid-gas,"244.13 K, Capillary rise",16.72 ± 0.5 mN/m
same,surface tension liquid-gas,"246.15 K, Capillary rise",16.42 ± 0.5 mN/m
same,surface tension liquid-gas,"248.13 K, Capillary rise",16.18 ± 0.49 mN/m
same,surface tension liquid-gas,"250.05 K, Capillary rise",15.87 ± 0.48 mN/m
same,surface tension liquid-gas,"252.1 K, Capillary rise",15.59 ± 0.47 mN/m
same,surface tension liquid-gas,"254.15 K, Capillary rise",15.26 ± 0.46 mN/m
same,surface tension liquid-gas,"256.05 K, Capillary rise",14.97 ± 0.45 mN/m
same,surface tension liquid-gas,"258.13 K, Capillary rise",14.69 ± 0.44 mN/m
same,surface tension liquid-gas,"260.05 K, Capillary rise",14.38 ± 0.43 mN/m
same,surface tension liquid-gas,"262.08 K, Capillary rise",14.13 ± 0.43 mN/m
same,surface tension liquid-gas,"264.13 K, Capillary rise",13.85 ± 0.42 mN/m
same,surface tension liquid-gas,"266.1 K, Capillary rise",13.58 ± 0.41 mN/m
same,surface tension liquid-gas,"268.08 K, Capillary rise",13.27 ± 0.4 mN/m
same,surface tension liquid-gas,"270.1 K, Capillary rise",13 ± 0.39 mN/m
same,surface tension liquid-gas,"272.04 K, Capillary rise",12.69 ± 0.38 mN/m
same,surface tension liquid-gas,"274.1 K, Capillary rise",12.4 ± 0.38 mN/m
same,surface tension liquid-gas,"276.03 K, Capillary rise",12.08 ± 0.37 mN/m
same,surface tension liquid-gas,"278.14 K, Capillary rise",11.81 ± 0.36 mN/m
same,surface tension liquid-gas,"280.14 K, Capillary rise",11.54 ± 0.35 mN/m
same,surface tension liquid-gas,"282.14 K, Capillary rise",11.25 ± 0.34 mN/m
same,surface tension liquid-gas,"284.14 K, Capillary rise",10.95 ± 0.33 mN/m
same,surface tension liquid-gas,"286.12 K, Capillary rise",10.67 ± 0.32 mN/m
same,surface tension liquid-gas,"288.13 K, Capillary rise",10.38 ± 0.32 mN/m
same,surface tension liquid-gas,"290.12 K, Capillary rise",10.1 ± 0.31 mN/m
same,surface tension liquid-gas,"292.13 K, Capillary rise",9.82 ± 0.3 mN/m
same,surface tension liquid-gas,"293.43 K, Surface Light Scattering",9.46 ± 0.28 mN/m
same,kinematic viscosity,293.43 K,1.81e-07 ± 2.3e-08 m2/s
same,surface tension liquid-gas,"294.12 K, Capillary rise",9.53 ± 0.29 mN/m
same,surface tension liquid-gas,"296.12 K, Capillary rise",9.24 ± 0.28 mN/m
same,surface tension liquid-gas,"298.1 K, Capillary rise",8.96 ± 0.27 mN/m
same,surface tension liquid-gas,"300.11 K, Capillary rise",8.66 ± 0.26 mN/m
same,surface tension liquid-gas,"302.17 K, Capillary rise",8.37 ± 0.26 mN/m
same,surface tension liquid-gas,"303.14 K, Surface Light Scattering",8.16 ± 0.25 mN/m
same,kinematic viscosity,303.14 K,1.66e-07 ± 2.2e-08 m2/s
same,surface tension liquid-gas,"304.11 K, Capillary rise",8.08 ± 0.25 mN/m
same,surface tension liquid-gas,"305.13 K, Capillary rise",7.95 ± 0.24 mN/m
same,surface tension liquid-gas,"306.12 K, Capillary rise",7.83 ± 0.24 mN/m
same,surface tension liquid-gas,"308.12 K, Capillary rise",7.54 ± 0.23 mN/m
same,surface tension liquid-gas,"310.18 K, Capillary rise",7.27 ± 0.22 mN/m
same,surface tension liquid-gas,"312.17 K, Capillary rise",7 ± 0.21 mN/m
same,surface tension liquid-gas,"313.11 K, Surface Light Scattering",6.78 ± 0.2 mN/m
same,kinematic viscosity,313.11 K,1.52e-07 ± 2e-08 m2/s
same,surface tension liquid-gas,"314.18 K, Capillary rise",6.71 ± 0.21 mN/m
same,surface tension liquid-gas,"316.17 K, Capillary rise",6.44 ± 0.2 mN/m
same,surface tension liquid-gas,"318.16 K, Capillary rise",6.17 ± 0.19 mN/m
same,surface tension liquid-gas,"320.17 K, Capillary rise",5.86 ± 0.18 mN/m
same,surface tension liquid-gas,"322.18 K, Capillary rise",5.61 ± 0.17 mN/m
same,surface tension liquid-gas,"323.14 K, Surface Light Scattering",5.46 ± 0.16 mN/m
same,kinematic viscosity,323.14 K,1.42e-07 ± 1.9e-08 m2/s
same,surface tension liquid-gas,"324.18 K, Capillary rise",5.39 ± 0.17 mN/m
same,surface tension liquid-gas,"326.17 K, Capillary rise",5.08 ± 0.16 mN/m
same,surface tension liquid-gas,"328.16 K, Capillary rise",4.84 ± 0.15 mN/m
same,surface tension liquid-gas,"330.17 K, Capillary rise",4.6 ± 0.14 mN/m
same,surface tension liquid-gas,"332.17 K, Capillary rise",4.33 ± 0.14 mN/m
same,surface tension liquid-gas,"333.15 K, Surface Light Scattering",4.2 ± 0.13 mN/m
same,kinematic viscosity,333.15 K,1.32e-07 ± 1.8e-08 m2/s
same,surface tension liquid-gas,"334.16 K, Capillary rise",4.1 ± 0.13 mN/m
same,surface tension liquid-gas,"343.14 K, Surface Light Scattering",3 ± 0.09 mN/m
same,kinematic viscosity,343.14 K,1.22e-07 ± 1.7e-08 m2/s
same,surface tension liquid-gas,"353.12 K, Surface Light Scattering",1.89 ± 0.06 mN/m
same,kinematic viscosity,353.12 K,1.12e-07 ± 1.5e-08 m2/s
same,surface tension liquid-gas,"363.11 K, Surface Light Scattering",0.92 ± 0.03 mN/m
same,kinematic viscosity,363.11 K,1.03e-07 ± 1.5e-08 m2/s
same,surface tension liquid-gas,"373.09 K, Surface Light Scattering",0.13 ± 0.01 mN/m
same,kinematic viscosity,373.09 K,8.97e-08 ± 1.3e-08 m2/s
